Test results as given in US4755594A, “N^6 -substituted adenosines” (Warner-Lambert Company, priority 1986, dated 1988).

Legend:
[1] = Mouse Activity and Screen Test Procedure (MAST): inhibition of spontaneous locomotion; format: in vivo, Swiss-Webster male mice; settings: IP, 1 h, read-out: Inhibition of motor activity
Excerpt: (§1) The compounds of the invention are new chemical substances which are useful as pharmaceutical agents for the treatment of psychoses. The antipsychotic activity of representative compounds of the invention was established by the Mouse Activity and Screen Test Procedure (MAST) described below. Animals Nine unfasted Swiss-Webster male mice weighing 20-30 g are equally divided into three groups for each drug dose to be tested. That is, data for each dose level was generated by three separate groups of three mice each. Drugs A minimum of three dose levels (10, 30, and 100 mg/kg) are tested for each drug. Treatments are administered intraperitoneally one hour prior to testing. All dosages are calculated as parent compound and given in volumes of 10 ml/kg. Compounds are dissolved or suspended in 0.2% Methocel. Control animals are injected with Methocel. Testing A two part testing procedure is started one hour postinjection. First, the screen test (ST) is performed (see Pharmac. Biochem. Behav. 6, 351-353, 1977). Briefly this test consists of placing mice on individual wire screens which are then rotated 180 degrees at the start of a 60 second observation period. The number of mice falling off the inverted screen is recorded. Immediately following the screen test, the final phase of testing is initiated by placing each group of three mice in one actophotometer (Life Sciences, 22, 1067-1076, 1978). The actophotometer consists of a cylindrical chamber whose center is occupied by another cylinder which contains the illumination for six photocells located on the perimeter of the chamber. Six light-beam interruptions equal one count. Locomotor activity is recorded by computer at ten minute intervals for 60 minutes. Data The data obtained from the screen test are expressed as percent of mice falling off the screen. Data derived from locomotor activity of drug treated mice are compared to the activity of vehicle treated animals and are expressed as percent inhibition of spontaneous locomotion. All percentages reported for inhibition of locomotion (LI) are based upon data accumulated for one hour. Both phases of testing are graded: A=60-100%; C=31-59%; and N=0-30%. An overall dose rating is obtained by the following criteria: […]

[2] = Mouse Activity and Screen Test Procedure (MAST): screen test; format: in vivo, Swiss-Webster male mice; settings: IP
Excerpt: as §1, with “recorded.” for “recorded. Immediately following the screen test, the final phase of testing is initiated by placing each group of three mice in one actophotometer (Life Sciences, 22, 1067-1076, 1978). The actophotometer consists of a cylindrical chamber whose center is occupied by another cylinder which contains the illumination for six photocells located on the perimeter of the chamber. Six light-beam interruptions equal one count. Locomotor activity is recorded by computer at ten minute intervals for 60 minutes.”

[3] = Antihypertensive evaluation (AHP3), aortic blood pressure in conscious rats; format: in vivo; settings: conscious rat
Excerpt: ANTIHYPERTENSIVE EVALUATION (AHP3)
This test procedure is described in the following paragraphs.
A Method for the Direct Monitoring of Aortic Blood
Pressure and Heart Rate from Conscious Rats
The continuous monitoring of pulsatile blood pressure (BP) from unrestrained conscious rats surgically equipped with polyethylene cannulas was accomplished by means of a computer assisted data capture scheme (CADCS). The basic elements of the methodology are the cannulation procedure and the CADCS.
Rats were anesthetized with Telazol (1:1 tiletamine HCl and zolazepam HCl); 20-40 mg/kg IM and the descending aorta exposed via a midline incision. Cannulas fabricated from polyethylene tubing were inserted into the aorta via an undersized puncture hole below the renal arteries. The puncture hole was made by a 23 G disposable needle with a section of the aorta clamped off above and below the puncture site. The cannulas, consisting of a PE100 (0.86 mm ID) body and a PE50 (0.58 mm ID) tip, were attached to a trocar, inserted through the psoas muscle, and passed subcutaneously along the midline of the back and externalized between the ears. The cannulas were anchored to the psoas muscle and between the scalulae (3-0 green braided suture). The midline incision was closed in two steps (muscle first, skin second) using continuous over-and-over sutures (4-0 chronic). Each rat was then given penicillin 30,000 units subcutaneously (Penicillin G Procaine Sterile Suspension).
The rats were fitted with a harness-spring-swivel assembly designed to protect the cannula and to provide the rat relative freedom of movement. The harnesses were fabricated from nylon hook and loop tape cemented to a metal plate to which spring wires (18-8 stainless steel) were attached to brass swivels. Each polyethylene cannula was channeled through a spring and connected through a swivel to a pressure transducer (Model P23Gb; Statham Instruments; Hato Rey, Puerto Rico) and an infusion pump (Sage model 234-7; Orion Research, Cambridge MA) by means of PE100 tubing. While on test, each rat received a continuous slow infusion of heparinized saline solution (approximately 400 μl or 40 units of heparin per 24 hours period) to prevent clot formation. Additional "flushes" of the cannula with heparinized saline were carried out when the aortic pulse pressure (systolic minus diastolic) was less than 25 mm Hg.
The pulsatile blood pressure and heart rate of each of 32 rats was monitored every minute by means of two in-laboratory microcomputers communicating directly with a data concentrator computer. The data were first stored on the data concentrator disk and then transferred to a magnetic tape for analysis and report generation by the main research computer. The overall scheme involved modulating the primary signal from the pressure transducer, generating the primary data set of the one-minute values for systolic, diastolic, and mean blood pressures and heart rate by the in-lab microcomputer and the storage, analysis, and report generation by the main research computer.
The transducers were connected to analog signal conditioning modules. The modules provided a regulated excitation voltage for the transducers, amplification as required to interface the microprocessors and an active low pass filter to compensate for the pressure wave form distortion produced by the flexible, fluid filled, narrow cannula. The distortion was 22-26 Hz and this provided a reliable estimate of both systolic and diastolic blood pressure.
The microcomputers (one for each of two groups of 16 rats) were connected to the input components through the module interface units, an analog-to-digital converter for the pressure wave form signal and the digital inputs for the dose and event marker switches. The microcomputer controlled the sequential acquisition of data from the modular interface units through an internal synchronous time-of-day clock/time base generator. […]

O[C@@H]1[C@H](O)[C@@H](CCl)O[C@H]1n1cnc2c(NCC3(c4ccccc4)CC3)ncnc21 [Example 5, 5'-Deoxy-5'-chloro-N6-((1-phenylcyclopropyl)methyl)adenosine]
inhibition in vivo at 3 mg/kg [1]: 16% | inhibition in vivo at 10 mg/kg [1]: 10% | inhibition in vivo at 30 mg/kg [1]: -4% | Inhibition of screen test failure ([2]; 3 mg/kg): 11% | Inhibition of screen test failure ([2]; 10 mg/kg): 0% | Inhibition of screen test failure ([2]; 30 mg/kg): 0%

OC[C@H]1O[C@@H](n2cnc3c(NCC4(c5ccccc5)CC4)ncnc32)[C@H](O)[C@@H]1O [Example 1, N6-((1-Phenylcyclopropyl)methyl)adenosine]
inhibition in vivo at 0.3 mg/kg ([1]; 0.3 mg/kg): 43% | inhibition in vivo at 1 mg/kg ([1]; 1.0 mg/kg): 48% | inhibition in vivo at 3 mg/kg [1]: 38% | inhibition in vivo at 10 mg/kg [1]: 92% | inhibition in vivo at 30 mg/kg [1]: 98% | inhibition in vivo at 100 mg/kg ([1]; 100 mg/kg): 100% | Inhibition of screen test failure ([2]; 0.3 mg/kg): 11% | Inhibition of screen test failure ([2]; 1.0 mg/kg): 0% | Inhibition of screen test failure ([2]; 3 mg/kg): 0% | Inhibition of screen test failure ([2]; 10 mg/kg): 0% | Inhibition of screen test failure ([2]; 30 mg/kg): 22% | Inhibition of screen test failure ([2]; 100 mg/kg): 44% | Maximum BP ↓ MAP ([3]; 1 mg/kg): 13% | Maximum BP ↓ MAP ([3]; 3 mg/kg): 23% | Maximum BP ↓ MAP ([3]; 10 mg/kg): 23%

OC[C@H]1O[C@@H](n2cnc3c(NCC4(c5cccc(Cl)c5)CCC4)ncnc32)[C@H](O)[C@@H]1O [Example 8, N6-((1-(3-Chlorophenyl)cyclobutyl)methyl)adenosine]
inhibition in vivo at 3 mg/kg [1]: 22% | inhibition in vivo at 10 mg/kg [1]: 35% | inhibition in vivo at 30 mg/kg [1]: 73% | Inhibition of screen test failure ([2]; 3 mg/kg): 0% | Inhibition of screen test failure ([2]; 10 mg/kg): 0% | Inhibition of screen test failure ([2]; 30 mg/kg): 0%

OC[C@H]1O[C@@H](n2cnc3c(NCC4(c5ccc(Cl)cc5)CC4)ncnc32)[C@H](O)[C@@H]1O [Example 12, N6-((1-(4-Chlorophenyl)cyclopropyl)methyl)adenosine]
inhibition in vivo at 3 mg/kg [1]: -4% | inhibition in vivo at 10 mg/kg [1]: 5% | inhibition in vivo at 30 mg/kg [1]: 20% | Inhibition of screen test failure ([2]; 3 mg/kg): 0% | Inhibition of screen test failure ([2]; 10 mg/kg): 0% | Inhibition of screen test failure ([2]; 30 mg/kg): 0% | Maximum BP ↓ MAP ([3]; 10 mg/kg): 23%

OC[C@H]1O[C@@H](n2cnc3c(NCC4(c5ccccc5)CCCCC4)ncnc32)[C@H](O)[C@@H]1O [Example 11, N6-((1-Phenylcyclohexyl)methyl)adenosine]
inhibition in vivo at 3 mg/kg [1]: 15% | inhibition in vivo at 10 mg/kg [1]: -10% | inhibition in vivo at 30 mg/kg [1]: 34% | Inhibition of screen test failure ([2]; 3 mg/kg): 11% | Inhibition of screen test failure ([2]; 10 mg/kg): 0% | Inhibition of screen test failure ([2]; 30 mg/kg): 0% | Maximum BP ↓ MAP ([3]; 10 mg/kg): 5%

OC[C@H]1O[C@@H](n2cnc3c(NCC4(c5ccccc5)CCCC4)ncnc32)[C@H](O)[C@@H]1O [Example 10, N6-((1-Phenylcyclopentyl)methyl)adenosine]
inhibition in vivo at 3 mg/kg [1]: -7% | inhibition in vivo at 10 mg/kg [1]: 12% | inhibition in vivo at 30 mg/kg [1]: 49% | Inhibition of screen test failure ([2]; 3 mg/kg): 11% | Inhibition of screen test failure ([2]; 10 mg/kg): 0% | Inhibition of screen test failure ([2]; 30 mg/kg): 22% | Maximum BP ↓ MAP ([3]; 10 mg/kg): 10%

OC[C@H]1O[C@@H](n2cnc3c(NCC4(c5cccc(Cl)c5)CC4)ncnc32)[C@H](O)[C@@H]1O [Example 2, N6-((1-(3-Chlorophenyl)cyclopropyl)methyl)adenosine]
inhibition in vivo at 3 mg/kg [1]: 19% | inhibition in vivo at 10 mg/kg [1]: 69% | inhibition in vivo at 30 mg/kg [1]: 90% | Inhibition of screen test failure ([2]; 3 mg/kg): 11% | Inhibition of screen test failure ([2]; 10 mg/kg): 0% | Inhibition of screen test failure ([2]; 30 mg/kg): 0%

O[C@@H]1[C@H](O)[C@@H](CCl)O[C@H]1n1cnc2c(NCC3(c4cccs4)CC3)ncnc21 [Example 6, 5'-Chloro-5'-deoxy-N6-((1-thien-2-ylcyclopropyl)methyl)adenosine]
inhibition in vivo at 3 mg/kg [1]: 11% | inhibition in vivo at 10 mg/kg [1]: 16% | inhibition in vivo at 30 mg/kg [1]: 51% | Inhibition of screen test failure ([2]; 3 mg/kg): 0% | Inhibition of screen test failure ([2]; 10 mg/kg): 0% | Inhibition of screen test failure ([2]; 30 mg/kg): 0%
